# Data taken from PubChem BioAssay (NCI).
#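 Following 48 hours of exposure in 96-well plates, responses at five concentrations were used to interpolate endpoints linearly. At the GI50, growth is halved. TGI: concentration producing complete growth inhibition.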
# Columns and labels:
# Test in all cases: NCI anticancer screen, dose series, 48 h
# [1] = tested on: A498 renal
# [2] = tested on: HOP-92 NSCLC
# [3] = tested on: SK-OV-3 ovarian
# [4] = tested on: HOP-62 NSCLC
# [5] = tested on: ACHN renal
# [6] = tested on: UACC-62 melanoma
# [7] = tested on: HT29 colon
# [8] = tested on: MOLT-4 leukemia
# [9] = tested on: MDA-MB-231 breast
# [10] = tested on: BT-549 breast
SMILES,TGI [1],TGI [2],TGI [3],TGI [4],TGI [5],TGI [6],TGI [7],TGI [8],GI50 [1],GI50 [2],GI50 [3],GI50 [4],GI50 [6],GI50 [7],GI50 [8],GI50 [9],TGI [9],GI50 [10],TGI [10],GI50 [5]
CCOC(=O)C1N(S(=O)(=O)c2ccc(C)cc2)CCC12c1ccccc1N(C(C)=O)C2C(/C=C/C(=O)OC)=C/C(=O)OC (configuration not stated),> 100 µM,> 100 µM,> 100 µM,> 100 µM,> 100 µM,> 100 µM,> 100 µM,,,,,,,,,,,,,
N#Cc1cccc(NC(=O)c2ccc(C(=O)O)c(C(=O)c3ccc(C(=O)O)c(C(=O)Nc4cccc(C#N)c4)c3)c2)c1,> 100 µM,> 100 µM,> 100 µM,> 100 µM,,> 100 µM,> 100 µM,> 100 µM,,,,,,,,,,,,
O=C(c1cc(O)ccc1O)c1ccccc1C(Cl)(Cl)Cl,> 100 µM,> 100 µM,> 100 µM,> 100 µM,> 100 µM,> 100 µM,> 100 µM,> 100 µM,,,,,,,,,,,,
Cn1cnc([N+](=O)[O-])c1Sc1ccccn1,> 100 µM,> 100 µM,> 100 µM,> 100 µM,> 100 µM,> 100 µM,> 100 µM,> 100 µM,,,,,,,,,,,,
CC1=NNC(=NCCN(C)C)C/C1=C/c1ccccc1Cl,> 100 µM,,> 100 µM,> 100 µM,> 100 µM,> 100 µM,> 100 µM,,,,,,,,,,,,,
COC(=O)/C=C/C(=O)C1C(C(=O)OC)C2(C(=O)OC)CCC1(C(=O)OC)N2 (configuration not stated),,,> 100 µM,> 100 µM,,> 100 µM,> 100 µM,> 100 µM,,,,,,,,,,,,
C=C(C=O)C1CC(=O)C(C(=O)OC)[C@@H]2O[C@@](C)(CC2=O)C[C@@H]2OC(=O)[C@]3(O[C@@H]23)[C@@H](C(=O)OC)C1 (some centres not stated),47 µM,37.9 µM,> 100 µM,58.8 µM,,44.8 µM,> 100 µM,> 100 µM,20.7 µM,16.5 µM,60.6 µM,25.6 µM,18.1 µM,29 µM,4.2 µM,22.1 µM,57.5 µM,21.7 µM,55 µM,
CCN(CC)CCN1C(=O)c2c(c(C)c3c(oc4cc(O)ccc43)c2C)C1=O,3.12 µM,3.14 µM,3.36 µM,4.84 µM,2.89 µM,2.96 µM,5.41 µM,,1.69 µM,1.54 µM,1.83 µM,2.06 µM,1.58 µM,2.14 µM,,1.74 µM,3.36 µM,1.67 µM,3.19 µM,1.56 µM
O=C(O)c1c(O)c2cc(Br)ccc2oc1=O,> 100 µM,> 100 µM,,> 100 µM,> 100 µM,> 100 µM,> 100 µM,> 100 µM,,,,,,,,,> 100 µM,,> 100 µM,
Cc1cc(C)cc(-n2c3nc(=O)n(C)c(=O)c-3nc3ccccc32)c1,> 100 µM,,> 100 µM,> 100 µM,> 100 µM,31.5 µM,41.3 µM,52.4 µM,,,,,,,,,,,,
O=P(Oc1ccc(Cl)cc1)(Oc1ccc(Cl)cc1)N1CC1,> 10 µM,,> 10 µM,> 10 µM,> 10 µM,> 10 µM,> 10 µM,> 10 µM,,,,,,,,,> 10 µM,,> 10 µM,
